# Experimental data taken from ChEMBL document CHEMBL5096228, “Targeting Vancomycin-Resistant Enterococci (VRE) Infections and Van Operon-Mediated Drug Resistance Using Dimeric Cholic Acid-Peptide Conjugates” (J Med Chem, 2022).
# The source made the active and inactive calls. The rule behind the calls is not given here.
# Tests used:
# Enterococcus faecium [1] = assay: Inhibition of vancomycin-resistance in Enterococcus faecium ATCC 51559 assessed as reduction in vanX expression at 2 ug/ml incubated for 1 hr measured after 7 days in presence of vancomycin by qRT-PCR analysis; type: functional; conditions: dose 2.0 µg/ml
# Enterococcus faecium [2] = assay: Antimicrobial activity against Enterococcus faecium assessed as growth inhibition after 14 to 16 hrs by CLSI based broth dilution method; type: functional; conditions: time 14-16 hrs
# Enterococcus faecium [3] = assay: Inhibition of vancomycin-resistance in Enterococcus faecium ATCC 51559 assessed as increase in vanR expression at 2 ug/ml measured after 1 hr by qRT-PCR analysis; type: functional; conditions: dose 2.0 µg/ml
# Enterococcus faecium [4] = assay: Antibiofilm activity against Vancomycin-resistant Enterococcus faecium ATCC 51559 assessed as log reduction in colony forming unit at 16 ug/ml incubated for 3 hrs by SYTO9 and PI staining based fluorescence assay; type: functional; conditions: dose 16 µg/ml
# Mus musculus = assay: Antimicrobial activity against Vancomycin-resistant Enterococcus faecium ATCC 51559 induced wound in BALB/c mouse assessed as log reduction in colony forming unit at 40 mg/kg administered topically 3 times daily for 3 days; type: functional; conditions: route top, time 3 day
# Cell membrane [5] = assay: Induction of membrane disruption in Vancomycin-resistant Enterococcus faecium ATCC 51559 at 4 to 16 ug/ml measured after 15 mins by DiSC2(5) dye based multimode plate reader assay; type: functional, subcellular; conditions: dose 4-16 µg/ml
# Enterococcus faecium [6] = assay: Antimicrobial activity against Vancomycin-resistant Enterococcus faecium ATCC 51559 assessed as growth inhibition after 14 to 16 hrs by CLSI based broth dilution method; type: functional; conditions: time 14-16 hrs
# Enterococcus faecium [7] = assay: Antibiofilm activity against Vancomycin-resistant Enterococcus faecium ATCC 51559 assessed as log reduction in colony forming unit at 16 ug/ml by SYTO9 and PI staining based fluorescence assay; type: functional, organism-based; conditions: dose 16.0 µg/ml, time 1-6 hrs, TDE = time-dependent effect
# Enterococcus faecium [8] = assay: Antimicrobial activity against vancomycin-susceptible Enterococcus faecium induced wound in BALB/c mouse assessed as log reduction in colony forming unit at 40 mg/kg administered topically 3 times daily for 3 days; type: functional, organism-based; conditions: route top, time 3.0 day
# Enterococcus faecium [9] = assay: Inhibition of vancomycin-resistance in Enterococcus faecium ATCC 51559 assessed as increase in vanA expression at 2 ug/ml measured after 1 hr by qRT-PCR analysis; type: functional; conditions: dose 2.0 µg/ml
# Enterococcus faecium [10] = assay: Induction of membrane-permeabilization in Enterococcus faecium ATCC 51559 at 8 ug/ml measured after 1 hr by PI staining based flow cytometry analysis; type: functional; conditions: dose 8.0 µg/ml
# Enterococcus faecium [11] = assay: Inhibition of vancomycin-resistance in Enterococcus faecium ATCC 51559 assessed as increase in vanS expression at 2 ug/ml measured after 1 hr by qRT-PCR analysis; type: functional; conditions: dose 2.0 µg/ml
# Enterococcus faecium [12] = assay: Inhibition of vancomycin-resistance in Enterococcus faecium ATCC 51559 assessed as increase in vanH expression at 2 ug/ml measured after 1 hr by qRT-PCR analysis; type: functional; conditions: dose 2.0 µg/ml
# Enterococcus faecium [13] = assay: Inhibition of vancomycin-resistance in Enterococcus faecium ATCC 51559 assessed as increase in vanX expression at 2 ug/ml measured after 1 hr in presence of vancomycin by qRT-PCR analysis; type: functional; conditions: dose 2.0 µg/ml
# Enterococcus faecium [14] = assay: Inhibition of vancomycin-resistance in Enterococcus faecium ATCC 51559 assessed as reduction in vanA expression at 2 ug/ml incubated for 1 hr measured after 7 days in presence of vancomycin by qRT-PCR analysis; type: functional; conditions: dose 2.0 µg/ml
# Enterococcus faecium [15] = assay: Antibiofilm activity against Vancomycin-resistant Enterococcus faecium ATCC 51559 assessed as log reduction in colony forming unit incubated for 12 hrs by SYTO9 and PI staining based fluorescence assay; type: functional, organism-based; conditions: dose 4-16 µg/ml, DDE = dose-dependent effect
# [16] = Hemolytic activity in human RBC at 50 ug/ml; type: toxicity, cell-based, Erythrocyte; conditions: red blood cells (erythrocytes), at 50 µg/mL, read-out: Activity
# Enterococcus faecium [17] = assay: Antibiofilm activity against Vancomycin-resistant Enterococcus faecium ATCC 51559 assessed as log reduction in colony forming unit at 32 ug/ml incubated for 12 hrs by SYTO9 and PI staining based fluorescence assay; type: functional; conditions: dose 32 µg/ml
# Enterococcus faecium [18] = assay: Resistance development in vancomycin-resistance Enterococcus faecium ATCC 51559 assessed as decrease CFU measured in presence of vancomycin; type: functional, organism-based
# Enterococcus faecium [19] = assay: Antibiofilm activity against Vancomycin-resistant Enterococcus faecium ATCC 51559 assessed as log reduction in colony forming unit at 16 ug/ml incubated for 12 hrs by SYTO9 and PI staining based fluorescence assay; type: functional; conditions: dose 16 µg/ml
# Enterococcus faecium [20] = assay: Membrane permeabilization in Enterococcus faecium ATCC 51559 at 16 ug/ml measured after 1 hr by PI staining based flow cytometry analysis; type: functional; conditions: dose 16 µg/ml
# Enterococcus faecium [21] = assay: Inhibition of vancomycin-resistance in Enterococcus faecium ATCC 51559 assessed as reduction in vanH expression at 2 ug/ml incubated for 1 hr measured after 7 days in presence of vancomycin by qRT-PCR analysis; type: functional; conditions: dose 2.0 µg/ml
# Cell membrane [22] = assay: Disruption of membrane in Enterococcus faecium ATCC 51559 at 4 ug/ml by SYTO9/PI staining based fluorometric analysis; conditions: dose 4.0 µg/ml, time 1-6 hrs, TDE = time-dependent effect
# Enterococcus faecium [23] = assay: Inhibition of vancomycin-resistance in Enterococcus faecium ATCC 51559 assessed as increase in vanY expression at 2 ug/ml measured after 1 hr by qRT-PCR analysis; type: functional; conditions: dose 2.0 µg/ml
# Enterococcus faecium [24] = assay: Inhibition of vancomycin-resistance in Enterococcus faecium ATCC 51559 assessed as reduction in vanS expression at 2 ug/ml measured after 1 hr in presence of vancomycin by qRT-PCR analysis; type: functional; conditions: dose 2.0 µg/ml
# Enterococcus faecium [25] = assay: Inhibition of vancomycin-resistance in Enterococcus faecium ATCC 51559 assessed as reduction in vanR expression at 2 ug/ml measured after 1 hr in presence of vancomycin by qRT-PCR analysis; type: functional; conditions: dose 2.0 µg/ml
# [26] = Cytotoxicity against mouse LLC cells assessed as reduction in cell viability; type: toxicity, cell-based; conditions: LLC (3LL) cells
# Enterococcus faecium [27] = assay: Induction of reactive oxygen species generation in Enterococcus faecium ATCC 51559 incubated for 1 hr by DCFH-DA based fluorescent microscopy; type: functional, organism-based
# Staphylococcus aureus [28] = assay: Antimicrobial activity against methicillin-resistant Staphylococcus aureus ATCC 33591 assessed as growth inhibition after 14 to 16 hrs by CLSI based broth dilution method; type: functional; conditions: time 14-16 hrs
# Staphylococcus aureus [29] = assay: Antimicrobial activity against Staphylococcus aureus ATCC 25923 assessed as growth inhibition after 14 to 16 hrs by CLSI based broth dilution method; type: functional; conditions: time 14-16 hrs
# [30] = Induction of membrane-permeabilization in Enterococcus faecium ATCC 51559 at 4 ug/ml measured after 1 hr by PI staining based flow cytometry analysis; conditions: at 4 µg/mL
# Enterococcus faecium [31] = assay: Inhibition of vancomycin-resistance in Enterococcus faecium ATCC 51559 assessed as reduction in vanY expression at 2 ug/ml incubated for 1 hr measured after 7 days in presence of vancomycin by qRT-PCR analysis; type: functional; conditions: dose 2.0 µg/ml
# Cell membrane [32] = assay: Disruption of membrane in Enterococcus faecium ATCC 51559 at 4 to 16 ug/ml measured after 1 hr by SYTO9/PI staining based fluorometric analysis; type: subcellular; conditions: dose 4-16 µg/ml
# Enterococcus faecium [33] = assay: Inhibition of vancomycin-resistance in Enterococcus faecium ATCC 51559 assessed as increase in vanZ expression at 2 ug/ml measured after 1 hr by qRT-PCR analysis; type: functional; conditions: dose 2.0 µg/ml
# Enterococcus faecium [34] = assay: Bactericidal activity against Vancomycin-resistant Enterococcus faecium ATCC 51559 assessed as inhibition of bacterial growth at 4 to 16 ug/ml measured upto 24 hrs by time-kill assay; type: functional, organism-based; conditions: dose 4-16 µg/ml
# Enterococcus faecium [35] = assay: Inhibition of vancomycin-resistance in Enterococcus faecium ATCC 51559 assessed as reduction in vanZ expression at 2 ug/ml incubated for 1 hr measured after 7 days in presence of vancomycin by qRT-PCR analysis; type: functional; conditions: dose 2.0 µg/ml
# Enterococcus faecium [36] = assay: Development of drug resistance in vancomycin-resistant Enterococcus faecium ATCC 51559 assessed as increase in TN1546 expression measured after 7 days in presence of vancomycin; type: functional, organism-based; conditions: time 7.0 day
# Enterococcus faecium [37] = assay: Resistance development in vancomycin-susceptible Enterococcus faecium assessed as vancomycin MIC99 at 2 ug/ml measured after 110 vancomycin passages; type: functional, organism-based; conditions: dose 2.0 µg/ml
# Enterococcus faecium [38] = assay: Development of drug resistance in vancomycin-resistant Enterococcus faecium ATCC 51559 assessed as increase in TN1546 expression measured after 7 days; type: functional; conditions: time 7 day
compound,measurement,setting,value
CC(C)C(N)C(=O)NCC(=O)O[C@@H]1CC[C@@]2(C)[C@@H](C1)C[C@@H](OC(=O)CNC(=O)C(N)C(C)C)[C@@H]1[C@@H]2C[C@H](OC(=O)CNC(=O)C(N)C(C)C)[C@]2(C)[C@@H]([C@H](C)CCC(=O)NCc3cn(CCCn4cc(CNC(=O)CC[C@@H](C)[C@H]5CC[C@H]6[C@@H]7[C@H](OC(=O)CNC(=O)C(N)C(C)C)C[C@@H]8C[C@H](OC(=O)CNC(=O)C(N)C(C)C)CC[C@]8(C)[C@H]7C[C@H](OC(=O)CNC(=O)C(N)C(C)C)[C@]56C)nn4)nn3)CC[C@@H]12.Cl.Cl.Cl.Cl.Cl.Cl (stereo not given in full),Activity,Enterococcus faecium [1],Active
same,MIC99,Enterococcus faecium [2],16 µg/mL
same,Activity,Enterococcus faecium [3],Active
same,log(activity),Enterococcus faecium [4],3
same,log(activity),Mus musculus,1
same,Activity,Cell membrane [5],Active
same,MIC99,Enterococcus faecium [6],4 µg/mL
same,Activity,Enterococcus faecium [7],Tde
same,Activity,Enterococcus faecium [8],Active
same,Activity,Enterococcus faecium [9],Active
same,Activity,Enterococcus faecium [10],90%
same,Activity,Enterococcus faecium [11],Active
same,Activity,Enterococcus faecium [12],Active
same,Activity,Enterococcus faecium [13],Active
same,Activity,Enterococcus faecium [14],Active
same,Activity,Enterococcus faecium [15],Dde
same,hemolysis at 50 ug/ml,[16],5%
same,log(activity),Enterococcus faecium [17],5
same,Activity,Enterococcus faecium [18],Active
same,log(activity),Enterococcus faecium [19],3
same,Activity,Enterococcus faecium [20],90%
same,Activity,Enterococcus faecium [21],Active
same,Activity,Cell membrane [22],Tde
same,Activity,Enterococcus faecium [23],Active
same,Activity,Enterococcus faecium [24],Active
same,Activity,Enterococcus faecium [25],Active
same,IC50,[26],414 µg/mL
same,Activity,Enterococcus faecium [27],Active
same,MIC99,Staphylococcus aureus [28],16 µg/mL
same,MIC99,Staphylococcus aureus [29],64 µg/mL
same,Activity,[30],90%
same,Activity,Enterococcus faecium [31],Active
same,Activity,Cell membrane [32],Active
same,Activity,Enterococcus faecium [33],Active
same,Activity,Enterococcus faecium [34],Active
same,Activity,Enterococcus faecium [35],Active
same,Activity,Enterococcus faecium [36],Active
CN[C@H](CC(C)C)C(=O)N[C@H]1C(=O)N[C@@H](CC(N)=O)C(=O)N[C@H]2C(=O)N[C@H]3C(=O)N[C@H](C(=O)N[C@H](C(=O)O)c4cc(O)cc(O)c4-c4cc3ccc4O)[C@H](O)c3ccc(c(Cl)c3)Oc3cc2cc(c3O[C@@H]2O[C@H](CO)[C@@H](O)[C@H](O)[C@H]2O[C@H]2C[C@](C)(N)[C@H](O)[C@H](C)O2)Oc2ccc(cc2Cl)[C@H]1O [VANCOMYCIN],MIC99,Enterococcus faecium [2],4 µg/mL
same,log(activity),Mus musculus,2
same,MIC99,Enterococcus faecium [6],> 128 µg/mL
same,Activity,Enterococcus faecium [37],Active
same,fold change (FC),Enterococcus faecium [38],3
same,IC50,[26],> 1 mM
same,MIC99,Staphylococcus aureus [28],2 µg/mL
same,MIC99,Staphylococcus aureus [29],8 µg/mL
